US10934296B2, “4-imidazopyridazin-1-yl-benzamides as Btk inhibitors” (Merck Sharp & Dohme B.V., priority 2011, dated 2021)

Experiments:
Lyn enzyme = Lyn enzyme (Homo sapiens (Human), UniProt P07948); experiment: Lyn enzyme activity, IMAP fluorescence polarization assay; details: 60 min pre-incubation, 2 μM ATP, bin bounds in μM
Btk enzyme (His-Btk) = Btk enzyme (His-Btk) (Homo sapiens (Human), UniProt Q06187); experiment: Btk enzyme activity, IMAP fluorescence polarization assay; details: 60 min pre-incubation, 5 μM ATP, bin bounds in nM
Sequence of Btk enzyme (His-Btk) (Q06187 whole entry): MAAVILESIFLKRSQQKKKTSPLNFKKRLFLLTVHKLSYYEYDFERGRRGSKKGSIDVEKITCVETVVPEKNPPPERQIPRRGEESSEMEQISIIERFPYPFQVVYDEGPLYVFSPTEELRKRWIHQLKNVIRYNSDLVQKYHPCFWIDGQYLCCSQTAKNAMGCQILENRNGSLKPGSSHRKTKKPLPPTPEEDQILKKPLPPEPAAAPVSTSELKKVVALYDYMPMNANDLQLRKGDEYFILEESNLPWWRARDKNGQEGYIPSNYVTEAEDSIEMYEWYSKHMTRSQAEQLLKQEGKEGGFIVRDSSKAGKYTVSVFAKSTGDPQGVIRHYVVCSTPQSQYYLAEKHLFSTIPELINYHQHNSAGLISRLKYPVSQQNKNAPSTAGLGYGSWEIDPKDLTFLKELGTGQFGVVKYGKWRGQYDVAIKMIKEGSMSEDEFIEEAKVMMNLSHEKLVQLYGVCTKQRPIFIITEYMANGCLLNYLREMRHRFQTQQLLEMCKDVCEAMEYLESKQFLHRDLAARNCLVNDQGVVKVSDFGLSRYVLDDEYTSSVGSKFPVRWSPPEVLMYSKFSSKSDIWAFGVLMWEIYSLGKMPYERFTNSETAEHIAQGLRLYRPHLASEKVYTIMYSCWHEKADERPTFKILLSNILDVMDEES

Lck enzyme = Lck enzyme (Homo sapiens (Human), UniProt P06239); experiment: Lck enzyme activity, IMAP fluorescence polarization assay; details: 60 min pre-incubation, 6 μM ATP, bin bounds in μM
Sequence of Lck enzyme (P06239 whole entry): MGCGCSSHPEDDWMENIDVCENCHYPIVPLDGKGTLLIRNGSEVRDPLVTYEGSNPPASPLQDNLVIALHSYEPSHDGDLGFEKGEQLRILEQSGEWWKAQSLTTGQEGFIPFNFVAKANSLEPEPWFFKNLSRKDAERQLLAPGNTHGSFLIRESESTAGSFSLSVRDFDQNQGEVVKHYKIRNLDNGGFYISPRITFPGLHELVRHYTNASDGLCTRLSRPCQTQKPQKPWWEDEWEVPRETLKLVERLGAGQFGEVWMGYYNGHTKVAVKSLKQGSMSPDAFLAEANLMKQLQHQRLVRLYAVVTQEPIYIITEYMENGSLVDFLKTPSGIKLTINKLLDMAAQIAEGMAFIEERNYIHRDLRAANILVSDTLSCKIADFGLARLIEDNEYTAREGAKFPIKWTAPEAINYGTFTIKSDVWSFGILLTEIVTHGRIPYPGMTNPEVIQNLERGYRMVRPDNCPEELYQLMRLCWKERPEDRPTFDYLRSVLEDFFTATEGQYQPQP

Sequence of Lyn enzyme (P07948 whole entry): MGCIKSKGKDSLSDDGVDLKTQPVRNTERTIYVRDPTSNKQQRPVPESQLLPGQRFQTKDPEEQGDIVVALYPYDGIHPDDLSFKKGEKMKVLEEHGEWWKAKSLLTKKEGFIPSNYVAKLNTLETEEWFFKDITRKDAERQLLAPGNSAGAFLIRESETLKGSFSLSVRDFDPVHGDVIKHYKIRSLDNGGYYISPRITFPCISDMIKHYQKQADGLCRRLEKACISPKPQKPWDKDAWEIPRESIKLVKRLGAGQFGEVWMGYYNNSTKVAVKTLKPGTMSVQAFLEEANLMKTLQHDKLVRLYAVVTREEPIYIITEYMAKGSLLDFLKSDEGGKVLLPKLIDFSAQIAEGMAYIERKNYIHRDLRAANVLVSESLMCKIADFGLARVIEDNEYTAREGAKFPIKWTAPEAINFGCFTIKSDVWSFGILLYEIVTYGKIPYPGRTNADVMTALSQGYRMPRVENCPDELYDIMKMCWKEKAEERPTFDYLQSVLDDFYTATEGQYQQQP

EC50 Lyn activity values (Lyn enzyme)	EC50 Btk activity values (Btk enzyme (His-Btk))	EC50 Lck activity values (Lck enzyme)	SMILES
<1 µM	<100 nM	<1 µM	CC#CC(=O)N1CCC[C@H]1c1nc(-c2ccc(C(=O)Nc3nccs3)cc2)c2c(N)nccn12 [Example 60, (S)-4-(8-amino-3-(1-but-2-ynoylpyrrolidin-2-yl)imidazo[1,5-a]pyrazin-1-yl)-N-(thiazol-2-yl)benzamide]
<1 µM		<1 µM	C=CC(=O)N1CCC[C@H]1c1nc(-c2ccc(C(=O)Nc3cc(CC)ccn3)cc2)c2c(N)nccn12 [Example 126, (S)-4-(3-(1-acryloylpyrrolidin-2-yl)-8-aminoimidazo[1,5-a]pyrazin-1-yl)-N-(4-ethylpyridin-2-yl)benzamide]
<1 µM		<1 µM	C=CC(=O)N1CCC[C@H]1c1nc(-c2ccc(C(=O)Nc3cc(-c4ccccc4)ccn3)cc2)c2c(N)nccn12 [Example 133, (S)-4-(3-(1-acryloylpyrrolidin-2-yl)-8-aminoimidazo[1,5-a]pyrazin-1-yl)-N-(4-phenylpyridin-2-yl)benzamide]
